# Measured values taken from patent publication US10220112B2, “Cyclic antimicrobial pseudopeptides and uses thereof” (INSERM (INSTITUT NATIONAL DE LA SANTE ET DE LA RECHERCHE …, priority 2014, dated 2019).
# Like-named read-outs stand apart in the source and are kept apart here. Starred links: 1 amine or outer side, 2 acyl side, 3 side chain; linkers in the order of their positions; H or OH if unused. Non-standard residues stand in square brackets, D forms with d. Residues, ends and D or L forms follow the SMILES beside them. azaβ3(1Nal) = O=C(CN(Cc1cccc2ccccc12)N[*:1])[*:2]; X2 = O=C(CN(Cc1ccc2ccccc2c1)N[*:1])[*:2]; X1 = O=C(CN(CC(O)CO)N[*:1])[*:2]
# Legend:
# [1] = test system: human erythrocytes; experiment: Lytic activity against human erythrocytes; type: cell-based; details: for Human cells H50 (peptide concentration at which half of the human erythrocytes are lysed): Table 1, 2 h 37°C, maximal concentration 1 mg/mL; for Human cells % hemolysis at 500 μM / Human cells H50: Table 2; for Human cells H50: maximal concentration 500 μM
# Description: Human blood was collected from EFS (‘Etablissement Francais du Sang’) in Rennes (France). […] After centrifugation, the absorbance of the supernatant was measured at 414 nm. Three wells were positive controls, where the RBC were mixed with water 1% Triton X-100, in these wells the totality of RBC were hemolyzed and the release of hemoglobin was considered to be 100%. Three wells were negative controls, where the RBC were mixed with PBS buffer, in these wells hemolysis was considered to be null. The percentage of hemolysis in each test well was calculated by comparing with controls. For each peptide, bloods from three different donors were tested.
# [2] = test system: Escherichia coli strain K12 XL-Blue; details: for E. coli MIC: strain K12 XL-Blue
# Description: (§1) The antibacterial activity of the synthesized peptides was measured using a standard microdilution assay. Two bacterial species were tested, Staphylococcus aureus strain Newman and Escherichia coli strain K12 XL-Blue. Bacterial strains were subcultured in Mueller-Hinton broth. […] Bacteria were grown to an optical density (600 nm) of 0.5 and diluted 10^3 times in MH broth. Cell density in wells was 10^5 cfu/mL. 100 μL of this suspension was mixed with 100 μL of 2-fold serial dilutions of peptides in the well of a microtitre plate. Purified peptides were first dissolved in appropriate solvent to a final concentration of 2 mg/mL, in the microtitre plate, dilutions were made in MH broth from 1 to 0.004 mg/mL. […] Results obtained in massic concentrations were converted to molar concentrations for proper comparisons. Tests were performed in triplicate.
# (§2) The results presented in Table 2 below were obtained in triplicate as described in the case of Table 1 except that the starting concentration was […] instead of 1 mg/mL.
# [3] = test system: Staphylococcus aureus strain Newman; details: for S. aureus MIC: strain Newman
# Description: as §1, §2
# [4] = test system: MRSA strain S. aureus N315; details: Table 2
# [5] = test system: VISA strain S. aureus Mu 50; details: Table 2
# [6] = Peptides stability in human sera (RP-HPLC)
# Description: Peptides stability in human sera. […] The initial time was recorded, and at known time intervals, 100 μL of reaction solution was removed and quenched by adding 200 μL of 95% EtOH and adjusted at pH=2 to eliminate the effect of peptides adsorption to the protein of the human serum. The cloudy reaction sample was cooled (4° C.) for 15 minutes and then spun at 14 000 rpm (Eppendorf centrifuge) for 4 minutes to pellet the precipitated serum proteins.
# The different peptides were incubated with human serum up to 10 hours, and their stability was analyzed and their half-lives determined by RP-HPLC (FIG. 1).
# [7] = Table 1, 20 h 37°C, maximal concentration 1 mg/mL
# [8] = Table 2, starting concentration 500 μM
# [9] = no colonies on BHI agar after 24 h 37°C
molecule,measurement,setting,value
H-FFSWLSRRTK-NH2 [Pep3],Human cells H50 (peptide concentration at which half of the human erythrocytes are lysed),[1],"nd (not detectable at the maximal concentration tested (1 mg/mL, 300 to 900 μM))"
same,E. coli MIC,[2]; [7],95 µM
same,S. aureus MIC,[3]; [7],190 µM
"CC(C)[C@@H]1NC(=O)[C@H](CCCNC(=N)N)NC(=O)[C@H](CCCNC(=N)N)NC(=O)[C@H](Cc2c[nH]c3ccccc23)NC(=O)[C@H](Cc2ccccc2)NC(=O)[C@H](Cc2ccccc2)NC(=O)[C@H](CCCCN)NC1=O [Pep18, (FFWRRVK)] (cyclo(FFWRRVK))",MRSA MIC,[4],8 µM
same,VISA MIC,[5],8 µM
same,E. coli MIC,[2]; [8],4 µM
same,S. aureus MIC,[3]; [8],4 µM
"N=C(N)NCCC[C@@H]1NC(=O)[C@H](Cc2c[nH]c3ccccc23)NC(=O)[C@H](Cc2ccccc2)NC(=O)CN(Cc2cccc3ccccc23)NC(=O)[C@H](CCCCN)NC(=O)CN(CC(O)CO)NC(=O)[C@H](CCCNC(=N)N)NC1=O (some centres unmarked) [Pep12, (Ψ1Nal-FWRR-ΨHyt-K)] (cyclo([azaβ3(1Nal)]FWRR[X1]K))",Human cells % hemolysis at 500 μM,[1],98%
same,Human cells H50,[1],220 µM
same,E. coli MIC,[2]; [8],16 µM
same,S. aureus MIC,[3]; [8],16 µM
CC(C)C[C@@H]1NC(=O)[C@H](Cc2c[nH]c3ccccc23)NC(=O)[C@H](Cc2ccccc2)NC(=O)[C@H](Cc2ccccc2)NC(=O)[C@H](CCCCN)NC(=O)[C@H]([C@@H](C)O)NC(=O)[C@H](CCCNC(=N)N)NC(=O)[C@H](CCCNC(=N)N)NC(=O)[C@H](CO)NC1=O [Pep6] (cyclo(FFWLSRRTK)),lysis of human erythrocytes (in words),[1],substantial hemolysis
same,Human cells H50 (peptide concentration at which half of the human erythrocytes are lysed),[1],5 µM
same,"MIC, fold reduced compared to Pep5, E. coli",[2],ten-fold
same,"MIC, fold reduced compared to Pep5, S. aureus",[3],ten-fold
same,fold higher activity than linear Pep4,[3]; species not specified,4 fold
same,stabilizing effect in human serum compared with linear Pep4,[6],~320 fold
H-FFSYWLSRRTK-NH2 [Pep2],Human cells H50 (peptide concentration at which half of the human erythrocytes are lysed),[1],"nd (not detectable at the maximal concentration tested (1 mg/mL, 300 to 900 μM))"
same,E. coli MIC,[2]; [7],80 µM
same,S. aureus MIC,[3]; [7],170 µM
"CC(C)C[C@@H]1NC(=O)[C@H](Cc2c[nH]c3ccccc23)NC(=O)[C@H](Cc2ccccc2)NC(=O)[C@H](Cc2ccccc2)NC(=O)[C@H](CCCCN)NC(=O)CN(CC(O)CO)NC(=O)[C@H](CCCNC(=N)N)NC(=O)[C@H](CCCNC(=N)N)NC1=O (some centres unmarked) [Pep10, (FFWLRRΨHytK)] (cyclo(FFWLRR[X1]K))",lysis of human erythrocytes (in words),[1],slightly hemolytic
same,Human cells H50 (peptide concentration at which half of the human erythrocytes are lysed),[1],150 µM
same,"MIC, fold lower compared to Pep9, E. coli",[2],seven-fold
same,E. coli MIC,[2]; [7],13 µM
same,"MIC, fold lower compared to Pep9, S. aureus",[3],four
same,S. aureus MIC,[3]; [7],25 µM
H-FFWLSRRTK-NH2 [Pep4],Human cells H50 (peptide concentration at which half of the human erythrocytes are lysed),[1],"nd (not detectable at the maximal concentration tested (1 mg/mL, 300 to 900 μM))"
same,E. coli MIC,[2]; [7],100 µM
same,S. aureus MIC,[3]; [7],200 µM
"CC(C)N1CC(=O)N[C@@H](CCCCN)C(=O)NN(Cc2ccc3ccccc3c2)CC(=O)N[C@@H](Cc2ccccc2)C(=O)NN(Cc2ccc3ccccc3c2)CC(=O)N[C@@H](CCCNC(=N)N)C(=O)N[C@@H](CCCNC(=N)N)C(=O)N1 [Pep16, (Ψ2Nal-F-Ψ2Nal-RR-ΨV-K)]",Human cells H50,[1],nd (not detectable at the maximal concentration tested (500 μM))
"N=C(N)NCCC[C@@H]1NC(=O)CN(Cc2ccc3ccccc3c2)NC(=O)[C@H](Cc2ccccc2)NC(=O)[C@H](Cc2ccccc2)NC(=O)[C@H](CCCCN)NC(=O)CN(CC(O)CO)NC(=O)[C@H](CCCNC(=N)N)NC1=O (some centres unmarked) [Pep15, (FFΨ2-Nal-RR-ΨHyt-K)] (cyclo(FF[X2]RR[X1]K))",MRSA MIC,[4],2 µM
same,VISA MIC,[5],2 µM
same,Human cells % hemolysis at 500 μM,[1],3%
same,Human cells H50,[1],nd (not detectable at the maximal concentration tested (500 μM))
same,E. coli MIC,[2]; [8],2 µM
same,S. aureus MIC,[3]; [8],2 µM
"H-MLIFVHIIAPVISGCAIAFFSYWLSRRNTK-NH2 [PepA1, reference compound]",hemolysis at 0.2 mg/mL,"[1]; 0.2 mg/mL (50 μM PepA1, 160 μM Pep11), value expected when choosing SEM concentration",50%
same,Human cells H50 (peptide concentration at which half of the human erythrocytes are lysed),[1],70 µM
same,hemolysis at the MIC,"[1]; human erythrocytes, at the peptide's MIC",20%
same,E. coli MIC,[2]; [7],8 µM
same,"Minimum Bactericidal Concentration (MBC), E. coli",[2]; [9],16 µM
same,S. aureus MIC,[3]; [7],8 µM
same,"Minimum Bactericidal Concentration (MBC), S. aureus",[3]; [9],16 µM
"C[C@@H](O)[C@@H]1NC(=O)[C@H](CCCNC(=N)N)NC(=O)[C@H](CCCNC(=N)N)NC(=O)[C@H](Cc2c[nH]c3ccccc23)NC(=O)[C@H](Cc2ccccc2)NC(=O)[C@H](Cc2ccccc2)NC(=O)[C@H](CCCCN)NC1=O [Pep8, (FFWRRTK)] (cyclo(FFWRRTK))",fold less hemolytic than Pep7,[1],10 fold
same,Human cells H50 (peptide concentration at which half of the human erythrocytes are lysed),[1],160 µM
same,fold more antibacterial than Pep7,[3]; species not specified,~3 fold
"CC(C)[C@@H]1NC(=O)[C@H](CCCNC(=N)N)NC(=O)[C@H](CCCNC(=N)N)NC(=O)CN(Cc2cccc3ccccc23)NC(=O)[C@H](Cc2ccccc2)NC(=O)CN(Cc2cccc3ccccc23)NC(=O)[C@H](CCCCN)NC1=O [Pep19, (Ψ1Nal-F-Ψ1Nal-RRVK)] (cyclo([azaβ3(1Nal)]F[azaβ3(1Nal)]RRVK))",MRSA MIC,[4],4 µM
same,VISA MIC,[5],4 µM
same,Human cells % hemolysis at 500 μM,[1],7%
same,Human cells H50,[1],nd (not detectable at the maximal concentration tested (500 μM))
same,E. coli MIC,[2]; [8],4 µM
same,S. aureus MIC,[3]; [8],4 µM
H-FFWLSRTK-NH2 [Pep5],Human cells H50 (peptide concentration at which half of the human erythrocytes are lysed),[1],"nd (not detectable at the maximal concentration tested (1 mg/mL, 300 to 900 μM))"
same,"MIC, fold higher than Pep4, E. coli",[2],two-fold
same,"MIC, fold higher than Pep4, S. aureus",[3],two-fold
"CC(C)C[C@H](NC(=O)[C@H](Cc1c[nH]c2ccccc12)NC(=O)[C@H](Cc1ccccc1)NC(=O)[C@@H](N)Cc1ccccc1)C(=O)N[C@@H](CCCNC(=N)N)C(=O)N[C@@H](CCCNC(=N)N)C(=O)NN(CC(=O)N[C@@H](CCCCN)C(N)=O)CC(O)CO (some centres unmarked) [Pep9, H-FFWLRRΨHytK-NH2] (H-FFWLRR[X1]K-NH2)",lysis of human erythrocytes (in words),[1],did not trigger detectable lysis
same,Human cells H50 (peptide concentration at which half of the human erythrocytes are lysed),[1],"nd (not detectable at the maximal concentration tested (1 mg/mL, 300 to 900 μM))"
same,E. coli MIC,[2]; [7],100 µM
same,"MIC, fold lower compared to Pep4, S. aureus",[3],two-fold
same,S. aureus MIC,[3]; [7],100 µM
"CC(C)N(CC(=O)N[C@@H](CCCCN)C(N)=O)NC(=O)[C@H](CCCNC(=N)N)NC(=O)[C@H](CCCNC(=N)N)NC(=O)CN(Cc1ccc2ccccc2c1)NC(=O)[C@H](Cc1ccccc1)NC(=O)CN(N)Cc1ccc2ccccc2c1 [Pep21, H-Ψ2Nal-F-Ψ2Nal-RR-ΨV-K-NH2]",Human cells H50,[1],nd (not detectable at the maximal concentration tested (500 μM))
C[C@@H](O)[C@@H]1NC(=O)[C@H](CCCNC(=N)N)NC(=O)[C@H](CCCNC(=N)N)NC(=O)[C@H](CO)NC(=O)[C@H](Cc2c[nH]c3ccccc23)NC(=O)[C@H](Cc2ccccc2)NC(=O)[C@H](Cc2ccccc2)NC(=O)[C@H](CCCCN)NC1=O [Pep7] (cyclo(FFWSRRTK)),Human cells H50 (peptide concentration at which half of the human erythrocytes are lysed),[1],14 µM
same,E. coli MIC,[2]; [7],13 µM
same,S. aureus MIC,[3]; [7],30 µM
same,"antibacterial activity, fold increase compared to Pep6",[3]; species not specified,two-fold
